Experimental data published in patent US20240083873A1, “PYRIMIDINE CARBOXAMIDE COMPOUND AND APPLICATION THEREOF” (SHANGHAI MEIYUE BIOTECH DEVELOPMENT CO., LTD, priority 2020, published 2024).
pIC50: −log10 of the molar value. Blank lines part the entries; values can stand above or below the molecule they belong to.

Assays:
[1] = molecular target: recombinant human Vanin-1 (Homo sapiens (Human), UniProt O95497); assay: Vanin-1 recombinant enzyme activity inhibition assay; assay type: biochemical; settings: Pantetheine 7-amino-4-trifluoromethylcoumarin substrate 45 μM, data at the 30th minute
Procedure: 1. Vanin-1 Recombinant Enzyme Activity Inhibition Assay
A certain mass of the compound was weighed precisely, and prepared with DMSO and reaction buffer (50 mM Tris base, 50 mM KCl, 1.6 mM cysteamine, 0.005% Brij 35, pH 8.0, prepared when using) to a maximum concentration of 10000 nM, then diluted in a 4-fold gradient, and prepared into 10 compound working solutions with different concentrations; • for the activity inhibition reaction of recombinant human Vanin-1 (Biorab, JN0618), 2.5 μL of compound working solution and 5 μL of recombinant human Vanin-1 protein were first mixed. […] Raw data at the 30th minute were collected for data processing and analysis, then the concentration-effect curve was fitted with GraphPad Prism 8 software, and the IC50 of the compound concentration was calculated.

[2] = In vivo pharmacokinetic evaluation in mice; settings: C57BL6 mice; for Peak concentration Cmax: plasma
Text: 2. In Vivo Pharmacokinetic Evaluation in Mice
To detect pharmacokinetic parameters of the compounds of the present disclosure in C57BL6 mice
The vehicle used in the experiment was: DMSO:Solutol:PBS=5%:25%:70% (v/v/v). Preparation method: The required compound was weighed accurately, added with a certain volume of DMSO in a certain proportion, vortex-mixed until completely dissolved, then added successively with Solutol and PBS according to the above proportion, and mixed well. The vehicles used in the intravenous (iv) administration group and oral (po) administration group were the same vehicles in the experiment. The intravenous dose was 1 mpk and the oral dose was 2 mpk. Experimental blood collection time points: IV group: 0.083, 0.25, 0.5, 1, 2, 4, 7, 24 h. PO group: 200 μL of whole blood was collected from jugular vein at each time point of 0.25, 0.5, 1, 2, 4, 7 and 24 h, anticoagulated with EDTA-K2, and immediately centrifuged at 4000 rpm for 5 minutes at 4° C. The supernatant was taken and the samples were frozen and stored in a refrigerator at −80° C. Processing of plasma samples: The sample was precipitated with ACN/MeOH (1:1, v/v) precipitant containing internal standard, then centrifuged at 14000 rpm for 5 minutes. The supernatant was taken into LC-MS/MS (AB Triple Quard 5500) for analysis to obtain plasma concentrations, and parameters were calculated by the non-compartmental model of Winnolin 8.1 version.

[3] = intragastric administration group po, 2 mpk
[4] = intravenous injection group iv, 1 mpk

Chain of recombinant human Vanin-1 (O95497 22-513): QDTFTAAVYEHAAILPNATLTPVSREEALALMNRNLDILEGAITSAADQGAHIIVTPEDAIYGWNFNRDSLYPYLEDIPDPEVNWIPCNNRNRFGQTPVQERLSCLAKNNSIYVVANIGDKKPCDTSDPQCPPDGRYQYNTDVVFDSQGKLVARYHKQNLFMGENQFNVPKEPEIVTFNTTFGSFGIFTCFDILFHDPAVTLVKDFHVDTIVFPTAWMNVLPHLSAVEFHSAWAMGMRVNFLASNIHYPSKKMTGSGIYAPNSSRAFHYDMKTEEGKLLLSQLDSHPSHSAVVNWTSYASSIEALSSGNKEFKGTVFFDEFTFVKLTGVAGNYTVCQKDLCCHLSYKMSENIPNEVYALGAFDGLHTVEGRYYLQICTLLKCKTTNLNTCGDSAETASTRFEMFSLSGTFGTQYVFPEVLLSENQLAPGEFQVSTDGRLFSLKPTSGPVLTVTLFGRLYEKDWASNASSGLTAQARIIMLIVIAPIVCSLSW

SMILES: CC(=O)N(C)C1CCN(C(=O)c2cnc(N[C@@H]3CCc4ncccc43)nc2)C1 (some centres unmarked) [Compound 17]
pIC50 [1]: 9.22
Area under the curve AUC0-7h [2, 3]: 684.31 ng·h/mL
Clearance rate CL [2, 3]: 48.6622 mL/min/kg
Distributed solvent Vd [2, 3]: 4.55 L/kg
Half-life T1/2 [2, 3]: 1.05 h
Peak concentration Cmax [2, 3]: 539.37 ng/mL
Area under the curve AUC0-7h [2, 4]: 557.60 ng·h/mL
Clearance rate CL [2, 4]: 33.857 mL/min/kg
Distributed solvent Vd [2, 4]: 2.60 L/kg
Half-life T1/2 [2, 4]: 0.93 h
Peak concentration Cmax [2, 4]: 742.33 ng/mL
Bioavailability F % ([2]; po 2 mpk vs iv 1 mpk): 61.4%

SMILES: Cc1ccc2c(n1)CCC2Nc1ncc(C(=O)N2CCC3(CCOCC3)C2)cn1 (centres unmarked) [Compound 19]
pIC50 [1]: 8.54
Area under the curve AUC0-7h [2, 3]: 1459.29 ng·h/mL
Clearance rate CL [2, 3]: 21.9452 mL/min/kg
Distributed solvent Vd [2, 3]: 2.91 L/kg
Half-life T1/2 [2, 3]: 1.52 h
Peak concentration Cmax [2, 3]: 766.60 ng/mL

SMILES: O=C(c1cnc(NC2CCc3ncccc32)nc1)N1CCC2(CCOCC2)C1 (centres unmarked) [Compound 2]
pIC50 [1]: 8.05

SMILES: CCC1(CC)CCN(C(=O)c2cnc(N[C@@H]3CCc4ncccc43)nc2)C1 [Compound 13]
pIC50 [1]: 8.38

SMILES: Cc1cnc2c(c1)C(Nc1ncc(C(=O)N3CCC4(CCOCC4)C3)cn1)CC2 (centres unmarked) [Compound 21]
pIC50 [1]: 8.16

Next, values leading:

pIC50 [1]: 8.77
SMILES: O=C(c1cnc(NC2CCc3ncc(Br)cc32)nc1)N1CCC2(CCOCC2)C1 (centres unmarked) [Compound 23]

pIC50 [1]: 8.70
SMILES: CCC(=O)N(C)C1CCN(C(=O)c2cnc(N[C@@H]3CCc4ncccc43)nc2)C1 (some centres unmarked) [Compound 26]
